The numbers were not newly measured in patent US20170258815A1, “CORTICOSTEROID FORMULATIONS AND METHODS FOR THE TREATMENT OF JOINT PAIN IN PATIENTS WITH DIABETES” (Flexion Therapeutics, Inc., priority 2016, published 2017), which cites them from elsewhere.

This data set concerns patients with controlled DM and OA of the knee.

On to `CC1(C)O[C@@H]2C[C@H]3[C@@H]4CCC5=CC(=O)C=C[C@]5(C)[C@@]4(F)[C@@H](O)C[C@]3(C)[C@]2(C(=O)CO)O1` [TCA, Triamcinolone acetonide], for which the “Levels of blood glucose after IA injection compared with IA hyaluronic acid” value is “significantly increased levels of blood glucose”.

As to `CC(C)(C)CC(=O)OCC(=O)[C@@]12OC(C)(C)O[C@@H]1C[C@H]1[C@@H]3CCC4=CC(=O)C=C[C@]4(C)[C@@]3(F)[C@@H](O)C[C@@]12C` [triamcinolone hexacetonide], the “Levels of blood glucose after IA injection compared with IA hyaluronic acid” value is reported as “significantly increased levels of blood glucose”.
